In patent publication US8414871B2, “Controlled releases of actives in skin” (priority 2002, dated 2013):

Key:
[1] = Dye penetration into skin layers, fluorescent microscopy of cryosectioned skin after passive permeation
Protocol: Human skin: The full thickness dermatomed (˜500 μm) human skin derived from the abdominal regions of female Caucasian cadavers were obtained from AlloSource (Englewood, Colo.) and stored at −80° C. Just before each experiment, the skin was allowed to thaw to room temperature and then used immediately for in vitro transport studies.
The receptor compartments were filled with 0.155 M phosphate buffered saline (pH 7.4, 5.1 mL), which was stirred at 600 rpm. The fluid in each receptor compartment was maintained at 37±0.5° C. by the use of a thermostatic water pump (Haake DC10, Karlsruhe, Germany) that circulated water through the jacket surrounding each main chamber. […] The skins were initially left in the Franz cells for 1 h in order to facilitate hydration of the membranes.
In all experiments, the donor compartment of the sampling port of each Franz cell was covered with a taught layer of Parafilm®, and the whole set up was roofed with aluminum foil to prevent the dye bleaching. Each permeation experiment was conducted in sextuplicate or quadruplicate (in case of time-dependency experiments).
At the end of the permeation experiment, the excess formulation was removed from the skin surface, skin sections were detached from the diffusion cells, washed three times with PBS, and dried gently with delicate task wipers (Kimwipes). The skins were frozen at −20° C., and 0.2×0.5 cm piece from the treated area was cut out and imbedded in optimal cutting temperature compound (OCT). A cryostat (Leica Cryostat CM 3050S, Wetzlar, Germany) was used to prepare the cross-section of full skin perpendicular to the skin surface. Nine to twelve vertical sections with a thickness of 20 μm each were obtained and stored at −4° C. till analyzed microscopically.
Fluorescent microscopy. Skin sections were subjected to both fluorescent and phase-contrast microscopy using Olympus CK40 microscope equipped with a UV source and filters for fluorescent measurement. Image capture and analysis were carried out using Olympus Microsuite™ B35V program. […] Images were recorded setting the camera integration time of 500 ms. The same parameters were used for imaging all samples and no corrections for the background fluorescence were made.
Quantitative analysis of dye penetration into skin was obtained by calculating pixel intensities from fluorescence measurements of skin sections. Image analysis was carried out for the epidermis (EP; consisting of stratum corneum and the viable epidermis), superficial dermis (SD) and lower dermis (LD) as schematically represented in FIG. 5. The superficial dermis is defined as the region measuring around 100 μm below the epidermis and the lower dermis is the remaining portion of the dermis below the superficial dermis.
H&E staining of the skin section (FIG. 5) was used to define the above layers for which quantitative analysis of dyes penetration was carried out.

[2] = Solute binding efficiency of nanospheres (HPLC); format: physicochemical
Protocol: The concentrations of the solutes were assayed by high-performance liquid chromatography (HPLC) using a Waters 2695 HPLC system equipped with UV/vis detector (Waters 2487, Dual 1 Absorbance Detector). Chromatographic separations were achieved using a RP-C18 column (Perkin-Elmer Brownlee Analytical C-18 column, 33 mm×4.6 mm) at 25° C. […] The mobile phase was delivered at a flow rate of 1 mL/min. […] Standard calibration samples were prepared at concentrations ranging from 1 to 50 μg/mL for all solutes. […] In addition, the specificity was determined by comparing the results obtained in the analysis of placebo supernatant, containing only nanospheres, with those obtained in the analysis of all standard solutions of the solutes and no interference from nanospheres was observed. To determine the solute binding efficiency, a predetermined aliquot of the purified nanosphere-solute complex suspension was withdrawn and freeze-dried, and the dry residue was accurately weighted before thoroughly dissolving in the extraction solvent. […] Solutes complexation by the nanospheres was characterized by the following ratio: [formula] Solutions of each solute in propylene glycol (PG) were prepared by stirring an excess of the molecule in PG at room temperature for 24 h. The samples were filtered through 0.22%μm PVDF syringe filters (Millipore, Bedford, Mass.), and the filtrates were used for all subsequent characterizations and experiments. For passive permeation experiments, the equal concentration (confirmed using RP-HPLC) of all solutes in both PG and nanospheres was achieved by subsequent dilution of either PG-solute solution with PG or NSP-solute formulation with PBS.

| SMILES | decrease of dye penetration from EP into the dermis [1] | decrease of fluorescence intensities from EP to LD ([1]; 24 hrs, NSP-dye formulations) [fold] | PE (penetration effect), fluorescence in epidermis ([1]; female, human, 24 h, pH 7.4) [ABU] | final concentration of solutes in nanospheres solutions [2] [µg/mL] | change in dye penetration from EP to LD [1] |
| --- | --- | --- | --- | --- | --- |
| CCN(CC)c1ccc2nc3c4ccccc4c(=O)cc-3oc2c1 [NR, Nile Red] | about five fold | 2.5 | 48.6±1.3 | 200 | – |
| COc1cc(/C=C/C(=O)CC(=O)/C=C/c2ccc(O)c(OC)c2)ccc1O [curcumin] | – | – | – | 190 | – |
| CCCCCCCCCCCC(=O)Nc1ccc2c(c1)C(=O)OC21c2ccc(O)cc2Oc2cc(O)ccc21 [DAF, 5-Dodecanoylaminofluorescein] | about two and a half fold | – | – | 180 | increase |
